From patent US4980377A, “1-(aminophenyl)-2-aminopropanone derivatives” (Laboratoire L. Lafon, priority 1984, dated 1990)
Entries after “also recorded” stand apart in the source; their conditions may differ.

Tests used:
mice [1] = assay: Interaction with oxotremorine; format: in vivo, mouse; settings: i.p.
Description: CRL 41 153 is administered to groups of 6 mice 0.5 hour before the intraperitoneal injection of 0.5 mg/kg of oxotremorine.

dogs = assay: Cardiovascular study in anesthetized dogs; format: in vivo, dog
Description: Two dogs (average weight: 14.1 kg), anesthetized with nembutal, receive CRL 41 194 by intraduodenal administration at successive doses of 0.1 mg/kg, 0.5 mg/kg, 1 mg/kg, 2.5 mg/kg, 5 mg/kg and 10 mg/kg (in solution in physiological solvent).
The blood pressure, the heart rate, the blood flow through the femoral artery, the blood flow through the vertebral artery and the rectal temperature are measured. The coloration of the skin and the coloration of the bile, collected by catheterization of the bile duct after ligature of the cystic duct, are observed.
4 dogs (average weight: 14 kg), anesthetized with nembutal, receive CRL 41 221 by intraduodenal administration at successive doses of 0.1 mg/kg, 0.5 mg/kg, 1 mg/kg, 2.5 mg/kg, 5 mg/kg and 10 mg/kg. The blood pressure, the heart rate, the blood flow through the femoral artery, the blood flow through the vertebral artery and the rectal temperature are measured. The coloration of the skin is observed.

rats [2] = assay: Overall behavior and reactivities in rats; format: in vivo, rat; settings: dose not stated
Description: (§1) In the neuropsychopharmacological study which follows, a solution of CRL 41 153 in distilled water (pH 1.5) was administered intraperitoneally in a volume of 20 ml/kg to male mice and 5 ml/kg to male rats.
(§2) Groups of three animals are observed before and then 0.25 hour, 0.50 hour, 1 hour, 2 hours, 3 hours and 24 hours after the administration of CRL 41 153.

mice [3] = assay: Interaction with apomorphine in mice; format: in vivo, mouse; settings: i.p.
Description: Groups of 6 mice receive CRL 41 153 0.5 hour before the subcutaneous injection of 1 or 16 mg/kg of apomorphine.

rats [4] = assay: Interaction with apomorphine in rats; format: in vivo, rat; settings: i.p.
Description: CRL 41 153 is administered to groups of 6 rats 0.5 hour before the subcutaneous injection of 0.5 mg/kg of apomorphine.

mice [5] = assay: Interaction with barbital; format: in vivo, mouse; settings: i.p., barbital 220 mg/kg
Description: Half an hour after the administration of CRL 41 153, groups of 10 mice receive an intraperitoneal injection of barbital (220 mg/kg).

CNS = assay: Neuropsychopharmacological profile as a whole; format: in vivo, mice and rats
Description: as §1

[6] = pH of solutions in distilled water; format: physicochemical
Description: The neuropsychopharmacological study was undertaken according to the procedures described above for CRL 41 153, CRL 41 213 being adminstered intraperitoneally, in solution in distilled water, in a volume of 20 ml/kg to male mice and a volume of 5 ml/kg to male rats, and the pH of the injected solution varying with the concentration of CRL 41 213 according to the data given in Table II below.

rats [7] = assay: Interaction with amphetamine; format: in vivo, rat; settings: i.p.
Description: Amphetamine (2 mg/kg) is injected intraperitoneally into groups of 6 rats 30 minutes after the administration of CRL 41 153. […] 4 mg/kg and 16 mg/kg, CRL 41 153 potentiates the intensity and duration of the stereotypies induced by amphetamine.

[8] = test system: gravid White New Zealand female rabbits; assay: Teratogenicity in gravid White New Zealand rabbits; format: in vivo, rabbit; settings: day 5 to day 18 of gestation; for Affected foetuses, %: normal limit 1.5%
Description: The protocol used comprised administering to gravid White New Zealand female rabbits (weighing each about 2900-3000 grams before gestation) a daily dose of 0 (batch of control animals), 5,10 or 50 mg/kg of each product to be tested by gastrogavage from day 5 to day 18 of gestation, then carrying out a cesarean operation on day 29 of gestation in order to enumerate:
(i) the total number of foestuses, and
(ii) the total number of foestuses presenting at least one malformation.
To appreciate the results of such a protocol it must be noted that natural malformations may occur. Statistically, the percentage of foetuses presenting at least one malformation in any control batch of gravid White New Zealand female rabbits is lower than or equal to 1.5% with respect to the total number of foetuses.
To be precise in this protocol a malformation comprises at least one of the following cases: articular limb blocade, anorous foetus, deviated tail, shorter tail, skull deformation, exemcephalia.

mice [9] = assay: Motility reduced by hypoxic aggression; format: in vivo, mouse; settings: i.p.
Description: Half an hour after they have received CRL 41 153, the mice (10 per dose, 20 control animals) are subjected to acute hypobaric anoxia [pressure reduction of 600 mm Hg (i.e. about 8×10^4 Pa) in 90 seconds; release of vacuum in 45 seconds] and are then placed in an actimeter, where their motility is recorded for 10 minutes.

mice [10] = assay: Spontaneous motility; format: in vivo, mouse; settings: i.p.
Description: 0.5 hour after they have received CRL 41 153, the mice (6 per dose, 12 control animals) are placed in an actimeter, where their motility is recorded for 30 minutes.

mice [11] = assay: Motility reduced by habituation to the enclosure; format: in vivo, mouse; settings: i.p.
Description: After they have stayed In the actimeters for 18 hours, (he mice (6 per dose, 12 control animals) receive CRL 41 153. They are immediately returned to their respective enclosures and, half an hour later, their motility is recorded for 30 minutes.

mice [12] = assay: Interaction with reserpine; format: in vivo, mouse; settings: i.p.
Description: Four hours after the intraperitoneal injection of 2.5 mg/kg of reserpine, groups of 6 mice receive CRL 41 153.

mice [13] = assay: Behavioral despair; format: in vivo, mouse; settings: forcibly immersed mice, i.p.
Text: Half an hour after they have received CRL 41 153, groups of 6 mice are placed in a beaker filled with water to a height of 6 cm. The total period of immobility between the 2nd and 6th minutes following immersion is noted.

mice [14] = assay: Overall behavior and reactivities in mice; format: in vivo, mouse; settings: dose not stated
Description: as §1, §2

[15] = anesthetized dogs, intraduodenal
[16] = 12.8 g/liter in distilled water
[17] = ≤0.05 g/liter in distilled water

Compound	Effect on hypothermic action of oxotremorine (mice [1])	Vasodilator (conclusion) (dogs)	Overall behavior: observed effects (summary) (rats [2])	Stereotype movements (summary) (rats [2])	Effect on hypothermia induced by apomorphine (mice [3])	Effect on stereotypies induced by apomorphine (rats [4])	Duration of the sleep induced by barbital (mice [5])	Antidepressant effects (overall) (CNS; conclusion of the tests)	Stimulant effects (overall) (CNS; conclusion of the tests)	pH ([6]; 0.1 g/liter in distilled water)	pH ([6]; 0.4 g/liter in distilled water)	pH ([6]; 0.8 g/liter in distilled water)	pH ([6]; 1.6 g/liter in distilled water)	pH ([6]; 6.4 g/liter in distilled water)	pH [6, 16]	pH [6, 17]	Effect on stereotypies induced by amphetamine (rats [7])	Affected foetuses, number ([8]; 5 mg/kg daily)	Total foetuses (live) ([8]; 5 mg/kg daily)	Affected foetuses, % ([8]; 5 mg/kg daily)	also measured
CC(C(=O)c1ccc(N)cc1)N(C)C (centres unmarked) [CRL 41 233]	antagonism of the hypothermia	vasodiating properties; also recorded: vasodilating properties	excitation with hyperreactivity in mice and rats	the presence of stereotype movements in mice and rats	antagonism of the hypothermia	potentiation of the stereotypies	a decrease in the duration of the sleep induced by barbital	antidepressant and stimulant properties	antidepressant and stimulant properties	5.0	4.0	3.5	3.0	2.0	1.5	5.5	potentiation of the stereotypies	1	89	1.12%	Rectal temperature (dogs; anesthetized dogs): large increase in the rectal temperature; Femoral flow (dogs; [15]): increases the femoral and vertebral flows as from a dose of 5 mg/kg; Heart rate (dogs; [15]): the tachycardiac effect appearing at 10 mg/kg; Vertebral flow (dogs; [15]): increases the femoral and vertebral flows as from a dose of 5 mg/kg; pH ([6]; 0.2 g/liter in distilled water): 4.5; pH ([6]; 3.2 g/liter in distilled water): 2.5; pH ([6]; 50 g/liter in distilled water): 1.0; Affected foetuses, number ([8]; 10 mg/kg daily): 0; Total foetuses (live) ([8]; 10 mg/kg daily): 85; Affected foetuses, % ([8]; 10 mg/kg daily): 0%; Motor recovery of mice after hypobaric hypoxia (mice [9]): improvement in the motor recovery; Spontaneous motor activity (mice [10]): an increase in the spontaneous motor activity of mice; Motor activity of mice accustomed to their enclosure (mice [11]): resumption in the motor activity of mice accustomed to their enclosure; Effect on hypothermia induced by reserpine (mice [12]): antagonism of the hypothermia; Period of immobility due to despair (mice [13]): a decrease in the period of immobility; Overall behavior: observed effects (summary) (mice [14]): excitation with hyperreactivity in mice and rats; Stereotype movements (summary) (mice [14]): the presence of stereotype movements in mice and rats
CC(NC1CC1)C(=O)c1ccc(N)cc1 (centres unmarked) [CRL 41 246]	antagonism of the hypothermia	vasodiating properties	excitation with hyperreactivity in mice and rats	the presence of stereotype movements in mice and rats	antagonism of the hypothermia	potentiation of the stereotypies	a reduction in the duration of the sleep induced by barbital	antidepressant effects	stimulant effects	5.0	4.5	4.0	3.5	3.0	2.5	5.5	potentiation of the stereotypies	1	89	1.12%	Effect on trembling induced by oxotremorine (mice [1]): antagonism of the trembling induced by oxotremorine; α-adrenergic stimulant effects (overall) (CNS; conclusion of the tests): α-adrenergic stimulant effects; Peripheral α-adrenergic signs (mydriasis, salivation, lacrimation, exophthalmos) (CNS; species and dose not stated): mydriasis; also recorded: salivation; Affected foetuses, number ([8]; 10 mg/kg daily): 0; Total foetuses (live) ([8]; 10 mg/kg daily): 94; Affected foetuses, % ([8]; 10 mg/kg daily): 0%; Motor recovery of mice after hypobaric hypoxia (mice [9]): improvement in the motor recovery; Spontaneous motor activity (mice [10]): an increase in the spontaneous motor activity of mice; Motor activity of mice accustomed to their enclosure (mice [11]): resumption in the motor activity of mice accustomed to their enclosure; Effect on hypothermia induced by reserpine (mice [12]): antagonism of the hypothermia; Effect on ptosis induced by reserpine (mice [12]): antagonism of the ptosis induced by reserpine; Period of immobility due to despair (mice [13]): a reduction in the period of immobility; Overall behavior: observed effects (summary) (mice [14]): excitation with hyperreactivity in mice and rats; Stereotype movements (summary) (mice [14]): the presence of stereotype movements in mice and rats
